Experimental data: patent publication US20090221642A1, “MUSCARINIC RECEPTOR AGONISTS, COMPOSITIONS, METHODS OF TREATMENT THEREOF, AND PROCESSES FOR PREPARATION THEREOF-176” (AstraZeneca AB, priority 2008, published 2009)

Target: T1, hM1 (human Muscarinic receptor subtype 1) (Homo sapiens, UniProt P11229)
T1 construct: expressed in transfected cells; host or cells: CHO cells (Chinese hamster ovary cells, ATCC)
T1 sequence (P11229 1-460): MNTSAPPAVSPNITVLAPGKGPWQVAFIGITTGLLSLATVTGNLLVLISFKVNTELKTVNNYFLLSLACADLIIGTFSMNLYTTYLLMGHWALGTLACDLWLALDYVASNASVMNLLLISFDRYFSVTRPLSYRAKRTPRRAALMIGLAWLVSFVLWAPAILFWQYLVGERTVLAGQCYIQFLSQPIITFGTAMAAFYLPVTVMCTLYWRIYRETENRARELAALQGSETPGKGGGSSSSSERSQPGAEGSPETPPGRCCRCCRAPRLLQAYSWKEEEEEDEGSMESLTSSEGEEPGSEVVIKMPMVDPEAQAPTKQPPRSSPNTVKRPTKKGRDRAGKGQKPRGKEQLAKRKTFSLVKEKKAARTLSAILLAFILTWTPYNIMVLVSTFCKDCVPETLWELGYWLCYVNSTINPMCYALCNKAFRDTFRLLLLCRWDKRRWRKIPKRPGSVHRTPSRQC
Assay: Human M1 calcium mobilization FLIPR assay
Assay type: cell-based
Settings: hM1 expressed in CHO cells, intracellular Ca2+ release, read-out: hM1 EC50
Procedure: Human M1, rat M1, human M3 and human M5 Calcium Mobilization FLIPR™ Assay
The compound activity in the present invention (EC50 or IC50) is measured using a 384 plate-based imaging assay that monitors drug induced intracellular Ca^2+ release in whole cells. Activation of hM1 (human Muscarinic receptor subtype 1, gene bank access NM_000738), rM1 (rat Muscarinic receptor subtype 1, gene bank access NM_080773), hM3 (human Muscarinic receptor subtype 3, gene bank access NM_000740NM_000740) and hM5 (human Muscarinic receptor subtype 5, gene bank access NM_0121258), receptors expressed in CHO cells (Chinese hamster ovary cells, ATCC) is quantified in a Molecular Devices FLIPR II™ instrument as an increase in fluorescent signal. Inhibition of hM3 and hM5 by compounds is determined by the decrease in fluorescent signal in response to 2 nM acetylcholine activation.
Prior to experiment, the cell culture medium is removed from the plates by inversion. […] Plates are incubated at 37° C. for 60 minutes prior to start the experiment. The incubation is terminated by washing the cells four times in assay buffer, leaving a residual 25 μl buffer per well. Cell plates are then transferred to the FLIPR, ready for compound additions.
The day of experiment, acetylcholine and compounds are diluted in assay buffer in three-fold concentration range (10 points serial dilution) for addition by FLIPR instrument. For all calcium assays, a baseline reading is taken for 10 seconds followed by the addition of 12.5 μl of compounds, resulting in a total well volume of 37.5 μl. Data is collected every second for 60 pictures and then every 6 seconds for 20 pictures prior to the addition of agonist. For hM3 and hM5, before agonist addition, a second baseline reading is taken for 10 seconds followed by the addition of 12.5 μl of agonist or buffer, producing a final volume of 50 μl. After agonist stimulation, the FLIPR continues to collect data every second for 60 pictures and then every 6 seconds for 20 pictures. The fluorescence emission is read using filter 1 (emission 510-570 nm) by the FLIPR on board CCD camera.
Calcium mobilization output data are calculated as the maximal relative fluorescence unit (RFU) minus the minimal value for both compound and agonist reading frame (except for hM1 and rM1 using only the maximal RFU). Data are analyzed using sigmoidal fits of a non-linear curve-fitting program (XLfit version 4.2.2 Excel add-in version 4.2.2 build 18 math 1Q version 2.1.2 build 18). All pEC50 and plC50 values are reported as arithmetic means ±standard error of mean of ‘n’ independent experiments.

| SMILES | EC50 [nM] |
| --- | --- |
| CCOC(=O)N1CCC(C)(N2CCC(N3C(=O)Cc4c3cc(F)cc4C(C)(C)C)CC2)C1 (stereo not drawn) [Example 85, ethyl 3-(4-(4-tert-butyl-6-fluoro-2-oxoindolin-1-yl)piperidin-1-yl)-3-methylpyrrolidine-1-carboxylate] | 1470 |
| COC(=O)N1CCC(C)(N2CCC(N3C(=O)Cc4c3cc(C)cc4C(C)(C)C)CC2)C1 (stereo not drawn) [Example 86, methyl 3-(4-(4-tert-butyl-6-methyl-2-oxoindolin-1-yl)piperidin-1-yl)-3-methylpyrrolidine-1-carboxylate] | 1420 |
| CCOC(=O)N1CCC(C)(N2CCC(N3C(=O)C4(CC4)c4ccc(F)cc43)CC2)C1 (stereo not drawn) [Example 87, ethyl 3-(4-(6′-fluoro-2′-oxospiro[cyclopropane-1,3′-indoline]-1′-yl)piperidin-1-yl)-3-methylpyrrolidine-1-carboxylate] | 125 |
